Assays:
[1] = test system: human embryonic kidney (HEK293) cell line; assay: MTT cell viability (cytotoxicity) assay in HEK293 cells; type: cell-based; conditions: 48 h incubation, non-tumor HEK293 cells, concentration needed to cause 50% net cell mortality
Source text: The cytotoxicity of the arene-Ru and arene-Os complexes was investigated against HeLa and Hek293 cells. The former cell is a cervical cancer line, while the latter is a non-tumor kidney cell line used to examine tumor selectivity. […] These findings imply that the higher stability of the chelating (SS) and the pincer (SNS) ligand architectures in the complexes improve the biological (anti-proliferative) activity by rendering ligand dissociation less likely to occur under physiological conditions. The pincer (SNS) osmium complexes were more cytotoxic than their ruthenium analogues. […] These allow for more efficient interactions with biological target molecules. Osmium typically forms coordinative bonds with more inert bonds than in the analogous lighter homolog, ruthenium. Due to their relative inertness and sufficient stability under physiological conditions, osmium complexes are considered exciting alternatives to ruthenium-based anti-cancer agents. However, there was no apparent general pattern in the reactivity of the two metal centers and the isostructural ligand. […]
(§1) The cytotoxicity of the compounds was examined in the HeLa and HEK293 cells using the MTT assay. […] Absorbance measurements were then taken at 570 nm using a Mindray MR-96A microplate reader (Vacutec, Hamburg, Germany).

[2] = test system: cervical carcinoma (HeLa) cell line; assay: MTT cell viability (cytotoxicity) assay in HeLa cells; type: cell-based, human
Source text: The cytotoxicity of the arene-Ru and arene-Os complexes was investigated against HeLa and Hek293 cells. The former cell is a cervical cancer line, while the latter is a non-tumor kidney cell line used to examine tumor selectivity. […] Due to their relative inertness and sufficient stability under physiological conditions, osmium complexes are considered exciting alternatives to ruthenium-based anti-cancer agents.
Phosphate-buffered saline tablets (PBS), 3-(4,5-dimethylthiazol-2-yl)-2.5-diphenyltetrazolium bromide (MTT), and DMSO were obtained from Merck (Darmstadt, Germany). The human embryonic kidney (HEK293) and cervical carcinoma (HeLa) cell lines were sourced from the American Type Culture Collection (ATCC) (Manassas, VA, USA). […]
as §1

In the case of Cn1ccn(CCn2ccn(C)c2=S)c1=S, the melting point is reported as 195 to 197 °C.

For CCn1ccn(CCn2ccn(CC)c2=S)c1=S, the melting point was 131 to 133 °C.

With CCCn1ccn(CCn2ccn(CCC)c2=S)c1=S the melting point was 91 to 92 °C.

Cn1ccn(Cn2ccn(C)c2=S)c1=S gave a melting point of 194 to 197 °C.

With CCn1ccn(Cn2ccn(CC)c2=S)c1=S the melting point was 175 to 177 °C.

Cn1ccn(Cc2cccc(Cn3ccn(C)c3=S)n2)c1=S gave a melting point of 190 to 193 °C.

With Cn1ccn(-c2cccc(-n3ccn(C)c3=S)n2)c1=S the melting point was 270 to 273 °C.

Molecule CC(C)n1ccn(-c2cccc(-n3ccn(C(C)C)c3=S)n2)c1=S has a melting point of 189 to 190 °C.

For O=c1[nH]cc(F)c(=O)[nH]1 [5-Fluorouracil, reference compound], the IC50 [1] was 180 ± 20 µM, the “Selectivity between tumor cells (HeLa) and normal cells (Hek293)” value ([2]; HeLa vs Hek293, MTT assay) was “selective toward the tumor cells” and the IC50 ([2]; Homo sapiens, MTT, 48 h incubation, HeLa cervical cancer cells, concentration needed to cause 50% net cell mortality) was 87 ± 15 µM.

— article PMC10935334, “Chemotherapeutic Activities of New η^6-p-Cymene Ruthenium(II) and Osmium(II) Complexes with Chelating SS and Tridentate SNS Ligands” (Molecules, 2024)
